In assay [1] the test system is NCI-H1975 (ATCC CRL-5908) cell line comprising an EGFR T790M L858R double mutation. The assay can be described thus: EGFR-SOS cellular inhibition assay (CellTiter-Glo cell proliferation). The format is cell-based. The following applies: Homo sapiens. (In ATP-based viability assays light output follows the ATP content of the culture.)
Description: A CellTiter-Glo (CTG) luminescent based assay (Promega) is used to assess growth of the cells, as a measurement of the ability of the compounds herein to inhibit EGFR signaling in the cells. […] The day after plating, cells are treated with a dilution series (e.g., a 9 point 3-fold dilution series) of the compounds herein (e.g., approximately 125 μL final volume per well).
Assay [2] has as its system MIA PaCa-2 cells (K-Ras G12C). The assay can be described thus: Ras-SOS cellular growth inhibition assay (CellTiter-Glo). The following applies: Homo sapiens, MIA PaCa-2, 120 h, read-out: IC50 in inhibiting MIA PaCa-2 cell growth.
Description: A CellTiter-Glo (CTG) luminescent based assay (Promega) is used to assess growth of the cells, as a measurement of the ability of the compounds herein to inhibit Ras signaling in the cells. […] The day after plating, cells are treated with a dilution series (e.g., a 9 point 3-fold dilution series) of the compounds herein (e.g., approximately 125 μL final volume per well). Cell viability can be monitored (e.g., approximately 5 days later) according to the manufacturer's recommended instructions, where the CellTiter-Glo reagent is added (e.g., approximately 65 μL), vigorously mixed, covered, and placed on a plate shaker (e.g., approximately for 20 min) to ensure sufficient cell lysis prior to assessment of luminescent signal. The IC50 values are determined using the four-parameter fit. The resulting IC50 value is a measurement of the ability of the compounds herein to reduce cell growth of Ras-driven cells as representative tumor cells.
Another assay concerns the target SOS1 (Homo sapiens (Human), UniProt Q07889). The assay can be described thus: Ras-SOS interaction assay (HTRF), K-Ras G13D utilized. The format is binding. The settings on record: K-Ras G13D. (Time-resolved FRET reads energy transfer from a long-lived donor to a nearby acceptor.)
[3] abbreviates: 120 h, NCI-H1975 cell proliferation, approximately 5 days, read-out: H1975 IC50.
Where [4] appears, read: NCI-H1975, EGFR T790M L858R double mutation, read-out: IC50 in inhibiting growth of NCI-H1975 cell line.
The mark [5] stands for this setting: read-out: IC50 value against SOS1.

Where two headings read alike, the source gives them in different places. Bounds are passed on as bounds.

Sequence of SOS1 (Q07889 564-1049): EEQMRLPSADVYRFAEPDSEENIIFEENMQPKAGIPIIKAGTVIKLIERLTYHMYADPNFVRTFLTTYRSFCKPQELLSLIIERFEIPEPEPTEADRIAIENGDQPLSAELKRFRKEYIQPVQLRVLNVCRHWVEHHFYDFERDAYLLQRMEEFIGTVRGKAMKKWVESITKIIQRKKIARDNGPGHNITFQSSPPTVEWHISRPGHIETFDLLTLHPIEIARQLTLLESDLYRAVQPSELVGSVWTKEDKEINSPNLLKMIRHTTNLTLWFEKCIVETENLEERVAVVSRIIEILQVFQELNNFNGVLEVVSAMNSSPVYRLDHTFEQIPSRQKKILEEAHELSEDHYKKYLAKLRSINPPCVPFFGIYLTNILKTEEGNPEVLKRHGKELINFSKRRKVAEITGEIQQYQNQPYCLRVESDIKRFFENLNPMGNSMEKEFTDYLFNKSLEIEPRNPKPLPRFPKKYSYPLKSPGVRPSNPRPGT

As to `C[C@H]1Nc2ncnc3c2cc(C2(C#N)CC2)c(=O)n3CCCCCCCCN2CCC(CC2)C(F)(F)c2cccc1c2` [Compound 54, 1-((4R)-2,2-difluoro-4-methyl-6^7-oxo-6^7,6^8-dihydro-5-aza-6(4,8)-pyrido[2,3-d]pyrimidina-1(4,1)-piperidina-3(1,3)-benzenacyclotetradecaphane-6^6-yl)cyclopropane-1-carbonitrile], the IC50 in assay [1] (setting [3]) was less than 1000 nM; in assay [1] (setting [4]) it was less than 500 nM; in assay [2] it was less than 1000 nM.
For `Cc1nc2c3cc(C4CCS(=O)(=O)CC4)c(=O)n(c3n1)CCCC/C=C\CN1CCC(CC1)C(F)(F)c1cccc(c1)[C@@H](C)N2` [Compound 174, (4R,Z)-6^6-(1,1-dioxidotetrahydro-2H-thiopyran-4-yl)-2,2-difluoro-6^2,4-dimethyl-6^7,6^8-dihydro-5-aza-6 (4,8)-pyrido[2,3-d]pyrimidina-1(4,1)-piperidina-3(1,3)-benzenacyclotridecaphan-11-en-6^7-one], the IC50 is less than 50 nM at SOS1 (setting [5]); less than 100 nM at SOS1 (read-out: SOS1 IC50); less than 1000 nM in assay [1] (setting [3]); less than 500 nM in assay [1] (setting [4]); less than 1000 nM in assay [2].
`Cc1nc2c3cc(C4(C#N)CC4)c(=O)n(c3n1)CCC/C=C\CN1CCC(CC1)C(F)(F)c1cccc(c1F)[C@@H](C)N2` [Compound 170, 1-((4R,Z)-3^2,2,2-trifluoro-6^2,4-dimethyl-6^7-oxo-6^7,6^8-dihydro-5-aza-6(4,8)-pyrido[2,3-d]pyrimidina-1(4,1)-piperidina-3(1,3)-benzenacyclododecaphan-10-en-6^6-yl)cyclopropane-1-carbonitrile]: the IC50 was less than 50 nM at SOS1 (setting [5]); less than 100 nM on SOS1 (read-out: SOS1 IC50); less than 1000 nM in assay [1] (setting [3]); less than 500 nM in assay [1] (setting [4]); less than 1000 nM in assay [2].
For `Cc1nc2c3cc(C4(C#N)CC4)c(=O)n(c3n1)CCCCCCCCC(C)(O)C(F)(F)c1cccc(c1)[C@@H](C)N2` (stereo partly drawn) [Compound 9, 1-((3R)-5,5-difluoro-6-hydroxy-1^2,3,6-trimethyl-1^7-oxo-1^7,1^8-dihydro-2-aza-1(4,8)-pyrido[2,3-d]pyrimidina-4(1,3)-benzenacyclotetradecaphane-1^6-yl)cyclopropane-1-carbonitrile], the IC50 was 100 to 5000 nM at SOS1 (read-out: SOS1 IC50), less than 1000 nM in assay [1] (setting [3]) and less than 1000 nM in assay [2].
As for `C[C@H]1Nc2ncnc3c2cc(C2(C#N)CC2)c(=O)n3CCCCCCCN2CCC(CC2)C(F)(F)c2cccc1c2` [Compound 61, 1-((4R)-2,2-difluoro-4-methyl-6^7-oxo-6^7,6^8-dihydro-5-aza-6(4,8)-pyrido[2,3-d]pyrimidina-1(4,1)-piperidina-3(1,3)-benzenacyclotridecaphane-6^6-yl)cyclopropane-1-carbonitrile], the IC50 at SOS1 (setting [5]) was less than 50 nM; on SOS1 (read-out: SOS1 IC50) it was less than 100 nM; in assay [1] (setting [3]), less than 1000 nM; in assay [1] (setting [4]) it was less than 500 nM; in assay [2] it was less than 1000 nM.
As to `C[C@H]1Nc2ncnc3c2cc(C2(C#N)CC2)c(=O)n3CCCCC/C=C\CN2CCC(CC2)C(F)(F)c2cccc1c2` [Compound 120, 1-((4R,Z)-2,2-difluoro-4-methyl-6^7-oxo-6^7,6^8-dihydro-5-aza-6(4,8)-pyrido[2,3-d]pyrimidina-1(4,1)-piperidina-3(1,3)-benzenacyclotetradecaphan-12-en-6^6-yl)cyclopropane-1-carbonitrile], the IC50 at SOS1 (setting [5]) is less than 50 nM; on SOS1 (read-out: SOS1 IC50) it was less than 100 nM; in assay [1] (setting [3]), less than 1000 nM; in assay [1] (setting [4]) it was less than 500 nM; in assay [2], less than 1000 nM.
Take `C[C@H]1Nc2nc(=O)n(c3c2cc(C2(C#N)CC2)c(=O)n3C)CC/C=C\CN2CCC(CC2)C(F)(F)c2cccc1c2` [Compound 6, 1-((6^3E,4R,9Z)-2,2-difluoro-6^8,4-dimethyl-6^2,6^7-dioxo-6^1,6^2,6^7,6^8-tetrahydro-5-aza-6(4,1)-pyrido[2,3-d]pyrimidina-1(4,1)-piperidina-3(1,3)-benzenacycloundecaphan-9-en-6^6-yl)cyclopropane-1-carbonitrile]: the IC50 at SOS1 (read-out: SOS1 IC50) is less than 100 nM; in assay [1] (setting [3]) it was less than 1000 nM; in assay [1] (setting [4]) it was less than 500 nM; in assay [2], less than 1000 nM.
`Cc1nc2c3cc(C4(C#N)CC4)c(=O)n(c3n1)CCCCCCCN1CCC(CC1)C(F)(F)c1cccc(c1F)[C@@H](C)N2` [Compound 167, 1-((4R)-3^2,2,2-trifluoro-6^2,4-dimethyl-6^7-oxo-6^7,6^8-dihydro-5-aza-6(4,8)-pyrido[2,3-d]pyrimidina-1(4,1)-piperidina-3(1,3)-benzenacyclotridecaphane-6^6-yl)cyclopropane-1-carbonitrile]: the IC50 is less than 50 nM on SOS1 (setting [5]); less than 100 nM on SOS1 (read-out: SOS1 IC50); less than 1000 nM in assay [1] (setting [3]); less than 500 nM in assay [1] (setting [4]); less than 1000 nM in assay [2].
Take `Cc1nc2c3cc(C4CCS(=O)(=O)CC4)c(=O)n(c3n1)CCCCCCCN1CCC(CC1)C(F)(F)c1cccc(c1)[C@@H](C)N2` [Compound 173, (4R)-6^6-(1,1-dioxidotetrahydro-2H-thiopyran-4-yl)-2,2-difluoro-6^2,4-dimethyl-6^7,6^8-dihydro-5-aza-6(4,8)-pyrido[2,3-d]pyrimidina-1(4,1)-piperidina-3(1,3)-benzenacyclotridecaphan-6^7-one]: the IC50 was less than 50 nM at SOS1 (setting [5]); less than 100 nM at SOS1 (read-out: SOS1 IC50); less than 1000 nM in assay [1] (setting [3]); less than 500 nM in assay [1] (setting [4]); less than 1000 nM in assay [2].
For `Cc1nc2c3cc(C4CCS(=O)(=O)CC4)c(=O)n(c3n1)CCCCC/C=C\CC(C)(O)C(F)(F)c1cccc(c1)[C@@H](C)N2` (stereo partly drawn) [Compound 101, (3R,Z)-1^6-(1,1-dioxidotetrahydro-2H-thiopyran-4-yl)-5,5-difluoro-6-hydroxy-1^2,3,6-trimethyl-1^7,1^8-dihydro-2-aza-1(4,8)-pyrido[2,3-d]pyrimidina-4(1,3)-benzenacyclotetradecaphan-8-en-1^7-one], the IC50 at SOS1 (setting [5]) was less than 50 nM; on SOS1 (read-out: SOS1 IC50), less than 100 nM; in assay [1] (setting [3]) it was less than 1000 nM; in assay [1] (setting [4]), less than 500 nM; in assay [2], less than 1000 nM.
Turning to `Cc1nc2c3cc(C4(C#N)CC4)c(=O)n(c3n1)CCCCC/C=C\CN1CCC(CC1)C(F)(F)c1cccc(c1)[C@@H](C)N2` [Compound 171, 1-((4R,Z)-2,2-difluoro-6^2,4-dimethyl-6^7-oxo-6^7,6^8-dihydro-5-aza-6(4,8)-pyrido[2,3-d]pyrimidina-1(4,1)-piperidina-3(1,3)-benzenacyclotetradecaphan-12-en-6^6-yl)cyclopropane-1-carbonitrile], the IC50 on SOS1 (setting [5]) was less than 50 nM; at SOS1 (read-out: SOS1 IC50), less than 100 nM; in assay [1] (setting [3]), less than 1000 nM; in assay [1] (setting [4]) it was less than 500 nM; in assay [2], less than 1000 nM.
`C[C@H]1Nc2ncnc3c2cc(C2CCS(=O)(=O)CC2)c(=O)n3CCCCCCN2CC(CCC(F)(F)c3cccc1c3F)C2` [Compound 90, (3R)-1^6-(1,1-dioxidotetrahydro-2H-thiopyran-4-yl)-4^2,5,5-trifluoro-3-methyl-1^7,1^8-dihydro-2-aza-1(4,8)-pyrido[2,3-d]pyrimidina-8(3,1)-azetidina-4(1,3)-benzenacyclotetradecaphan-1^7-one]: the IC50 at SOS1 (read-out: SOS1 IC50) was less than 100 nM; in assay [1] (setting [3]), less than 1000 nM.
`C[C@H]1Nc2ncnc3c2cc(C2CCS(=O)(=O)CC2)c(=O)n3CCCCCC(C)(C)CN2CCC(CC2)C(F)(F)c2cccc1c2` [Compound 55, (4R)-6^6-(1,1-dioxidotetrahydro-2H-thiopyran-4-yl)-2,2-difluoro-4,12,12-trimethyl-6^7,6^8-dihydro-5-aza-6(4,8)-pyrido[2,3-d]pyrimidina-1(4,1)-piperidina-3(1,3)-benzenacyclotridecaphan-6^7-one]: the values for the IC50 (at SOS1 (read-out: SOS1 IC50); in assay [1] (setting [3])) were less than 100 nM and less than 1000 nM, respectively.
For the compound `C[C@H]1Nc2ncnc3c2cc(C2CCS(=O)(=O)CC2)c(=O)n3CCCCCCCN2CCC(CC2)C(F)(F)c2cccc1c2` [Compound 83, (4R)-6^6-(1,1-dioxidotetrahydro-2H-thiopyran-4-yl)-2,2-difluoro-4-methyl-6^7,6^8-dihydro-5-aza-6(4,8)-pyrido[2,3-d]pyrimidina-1(4,1)-piperidina-3(1,3)-benzenacyclotridecaphan-6^7-one], the IC50 at SOS1 (read-out: SOS1 IC50) was less than 100 nM; in assay [1] (setting [3]), less than 1000 nM.
As for `C[C@H]1Nc2ncnc3c2cc(C2(C#N)CC2)c(=O)n3CCCCn2cc(nn2)CN2CCC(CC2)C(F)(F)c2cccc1c2` [Compound 94, 1-((6R,Z)-4,4-difluoro-6-methyl-8^7-oxo-8^7,8^8-dihydro-1^1H-7-aza-8(4,8)-pyrido[2,3-d]pyrimidina-3(1,4)-piperidina-1(4,1)-triazola-5(1,3)-benzenacyclododecaphane-8^6-yl)cyclopropane-1-carbonitrile], the IC50 was less than 100 nM at SOS1 (read-out: SOS1 IC50) and less than 1000 nM in assay [1] (setting [3]).
`C[C@H]1Nc2ncnc3c2cc(C2CCS(=O)(=O)CC2)c(=O)n3CCCCCCC(=O)N2CCC(CC2)C(F)(F)c2cccc1c2F` [Compound 28, (4R)-6^6-(1,1-dioxidotetrahydro-2H-thiopyran-4-yl)-3^2,2,2-trifluoro-4-methyl-6^7,6^8-dihydro-5-aza-6(4,8)-pyrido[2,3-d]pyrimidina-1(4,1)-piperidina-3(1,3)-benzenacyclotridecaphane-6^7,13-dione]: the IC50 is less than 100 nM on SOS1 (read-out: SOS1 IC50) and less than 1000 nM in assay [1] (setting [3]).
Regarding `C[C@H]1Nc2ncnc3c2cc(C2CCS(=O)(=O)CC2)c(=O)n3CCCOCCCCN2CCC(CC2)C(F)(F)c2cccc1c2F` [Compound 203, (4R)-6^6-(1,1-dioxidotetrahydro-2H-thiopyran-4-yl)-3^2,2,2-trifluoro-4-methyl-6^7,6^8-dihydro-10-oxa-5-aza-6(4,8)-pyrido[2,3-d]pyrimidina-1(4,1)-piperidina-3(1,3)-benzenacyclotetradecaphan-6^7-one], the IC50 at SOS1 (read-out: SOS1 IC50) was less than 100 nM; in assay [1] (setting [3]), less than 1000 nM.

What is called IC50 is the midpoint of a concentration-inhibition curve.
